Earlier results as cited in patent publication US6645390B1, “Composition and method for treating hydrocarbon fires” (Hazard Control Technologies, Inc., priority 1994, dated 2003).

solubility in water: slightly soluble
pH (at the concentration of its slight solubility in water): about 3.5
Substance: isononanoic acid
